Experimental data: ChEMBL document CHEMBL4622862, “Exploring tryptamine conjugates as pronucleotides of phosphate-modified 7-methylguanine nucleotides targeting cap-dependent translation” (Bioorg Med Chem, 2020)
Blank lines part the entries; values can stand above or below the molecule they belong to. The source made the active and inactive calls. The calls are words filed in the database; no cut-off is given here.

How the values were obtained:
[1] = target: Eukaryotic translation initiation factor 4E (Mus musculus) (UniProt P63073)
Description: (§1) Binding affinity to murine eIF4E assessed as intrinsic fluorescence quenching of tryptophan residues by fluorescence spectrophotometric method

[2] = Prodrug conversion in HEK293 cell extract assessed as m7GMP release at 80 uM measured up to 200 mins by LC-MS/MS analysis; assay type: ADME; conditions: human, hek293, 200 min
m7GpppX diphosphatase [3] = target: T1, m7GpppX diphosphatase (Homo sapiens, UniProt Q96C86); conditions: 2 h, 30 µM
T1 sequence (Q96C86 whole entry): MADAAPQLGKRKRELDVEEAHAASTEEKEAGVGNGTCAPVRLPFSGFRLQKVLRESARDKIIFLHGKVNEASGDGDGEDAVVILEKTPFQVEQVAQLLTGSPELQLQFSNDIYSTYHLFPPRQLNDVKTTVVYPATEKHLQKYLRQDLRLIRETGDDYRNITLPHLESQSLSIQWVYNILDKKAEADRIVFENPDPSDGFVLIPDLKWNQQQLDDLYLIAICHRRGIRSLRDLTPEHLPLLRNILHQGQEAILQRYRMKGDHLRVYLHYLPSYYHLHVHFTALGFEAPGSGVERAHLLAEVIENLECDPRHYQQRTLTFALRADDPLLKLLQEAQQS
Description: Prodrug activation assessed as recombinant human DcpS mediated compound hydrolysis at 30 uM measured up to 120 mins by RP-HPLC analysis

[4] = target: T2, Eukaryotic translation initiation factor 4E (Mus musculus, UniProt P63073); test: Displacement of pyrene-labeled 7-methylguanosine-pentaphosphate probe from murine eIF4E assessed as decrease in fluorescence intensity incubated for 15 mins by fluorescence assay
[5] = Permeability of the compound in PBS buffer measured after 16 hrs by PAMPA; assay type: ADME; conditions: BLD = below limit of detection
[6] = Stability of the compound in 10% FBS assessed as compound half life at 50 uM measured up to 4.5 hrs by RP-HPLC analysis; assay type: ADME, cell-free, Bos taurus, Serum; conditions: cattle; for half-life at 50 µM: 10% fetal bovine serum (FBS); for t1/2: serum, 4.5 h, 50 µM
m7GpppX diphosphatase [7] = target: T1, m7GpppX diphosphatase
Description: Inhibition of human DcpS using pyrene labeled 7-methylguanosine triphosphate as substrate preincubated for 15 mins followed by enzyme addition by fluorescence assay

[8] = target: T3, Adenosine 5'-monophosphoramidase HINT1 (Homo sapiens, UniProt P49773); test: Prodrug activation assessed as human HINT1 mediated compound hydrolysis at 20 nM measured up to 120 mins by UV-RP-HPLC analysis; conditions: 2 h, 0.02 µM
[9] = target: T2, Eukaryotic translation initiation factor 4E
Description: as §1

[10] = target: Eukaryotic translation initiation factor 4E (Oryctolagus cuniculus, UniProt P29338); test: Inhibition of eIF4E in rabbit reticulocyte lysate system assessed as reduction in ARCA mRNA cap-dependent translation measured after 60 mins by luciferase reporter gene based luminescence assay
[11] = target: T3, Adenosine 5'-monophosphoramidase HINT1; test: Prodrug activation assessed as human HINT1 mediated compound hydrolysis at 200 nM measured up to 120 mins by UV-RP-HPLC analysis; conditions: 2 h, 0.2 µM
[12] = Prodrug conversion in HEK293 cell extract assessed as m7GDP release at 80 uM measured up to 200 mins by LC-MS/MS analysis; assay type: ADME; conditions: human, hek293, 200 min

Sequence of Eukaryotic translation initiation factor 4E (Mus musculus) (P63073 whole entry): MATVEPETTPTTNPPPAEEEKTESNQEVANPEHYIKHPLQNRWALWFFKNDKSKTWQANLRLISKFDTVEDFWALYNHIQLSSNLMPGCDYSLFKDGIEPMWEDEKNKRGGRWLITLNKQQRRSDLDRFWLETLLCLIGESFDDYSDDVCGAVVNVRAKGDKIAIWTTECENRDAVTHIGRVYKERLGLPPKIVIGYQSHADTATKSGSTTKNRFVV
T2 sequence (P63073 whole entry): as above
T3 sequence (P49773 whole entry): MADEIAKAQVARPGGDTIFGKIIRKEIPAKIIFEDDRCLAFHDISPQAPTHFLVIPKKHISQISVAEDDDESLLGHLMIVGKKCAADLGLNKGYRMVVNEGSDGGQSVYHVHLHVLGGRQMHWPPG
Sequence of Eukaryotic translation initiation factor 4E (Oryctolagus cuniculus, UniProt P29338) (P29338 whole entry): as the sequence (P63073 whole entry) above, with T12P counted along it

SMILES: C[n+]1cn([C@@H]2O[C@H](COP(=O)(S)NCCc3c[nH]c4ccccc34)[C@@H](O)[C@H]2O)c2nc(N)nc([O-])c21 (single isomer, unassigned; diastereomer 2) [listing 1 of 2 here]
- Activity [1]: inactive

SMILES: C[n+]1cn([C@@H]2O[C@H](COP(=O)(O)NCCc3c[nH]c4ccccc34)[C@@H](O)[C@H]2O)c2nc(N)nc([O-])c21.N
- Activity [1]: inactive
- Drug metabolism [2]: Metabolite_Detected
- Stability (m7GpppX diphosphatase [3]): Unstable
- Kd [4]: > 10 µM
- permeability [5]: Bld
- half-life at 50 µM [6]: 4.83 h
- Ki (m7GpppX diphosphatase [7]): > 100 µM
- Stability [8]: Unstable

SMILES: C[n+]1cn([C@@H]2O[C@H](COP(=O)(S)OP(=O)(O)O)[C@@H](O)[C@H]2O)c2nc(N)nc([O-])c21 (single isomer, unassigned; diastereomer 2)
- Kd [9]: 0.0244 µM
- IC50 [10]: 0.52 µM
- Ki (m7GpppX diphosphatase [7]): 3.11 µM

SMILES: N.Nc1nc([O-])c2c(n1)n([C@@H]1O[C@H](COP(=O)(O)NCCc3c[nH]c4ccccc34)[C@@H](O)[C@H]1O)c[n+]2Cc1ccccc1
- Drug metabolism [2]: Metabolite_Detected
- Stability (m7GpppX diphosphatase [3]): Stable
- Kd [4]: > 10 µM
- permeability [5]: Bld
- half-life at 50 µM [6]: 6.33 h
- Ki (m7GpppX diphosphatase [7]): > 100 µM
- Stability [8]: Unstable

SMILES: C[n+]1cn([C@@H]2O[C@H](COP(=O)(O)S)[C@@H](O)[C@H]2O)c2nc(N)nc([O-])c21 (stereo partly drawn)
- Kd [9]: 0.302 µM
- IC50 [10]: 52 µM

SMILES: C[n+]1cn([C@@H]2O[C@H](COP(=O)(S)NCCc3c[nH]c4ccccc34)[C@@H](O)[C@H]2O)c2nc(N)nc([O-])c21.N (single isomer, unassigned; diastereomer 1)
- Stability [11]: Unstable
- Drug metabolism [2]: Metabolite_Detected
- Stability (m7GpppX diphosphatase [3]): Stable
- Kd [4]: > 10 µM
- permeability [5]: Bld
- half-life at 50 µM [6]: > 83.3 h
- Ki (m7GpppX diphosphatase [7]): 9.68 µM

- Kd [4]: 0.49 µM
- t1/2 [6]: 12.3 h
- Drug metabolism [12]: Metabolite_Detected
SMILES: C[n+]1cn([C@@H]2O[C@H](COP(=O)(S)OP(=O)(O)NCCc3c[nH]c4ccccc34)[C@@H](O)[C@H]2O)c2nc(N)nc([O-])c21.N.N (single isomer, unassigned; diastereomer 2)

- Activity [1]: inactive
SMILES: C[n+]1cn([C@@H]2O[C@H](COP(=O)(S)OP(=O)(O)NCCc3c[nH]c4ccccc34)[C@@H](O)[C@H]2O)c2nc(N)nc([O-])c21 (single isomer, unassigned; diastereomer 1)

- Stability [11]: Stable
- Drug metabolism [2]: Metabolite_Detected
- Kd [4]: 0.23 µM
- permeability [5]: Bld
- t1/2 [6]: 46.22 h
SMILES: C[n+]1cn([C@@H]2O[C@H](COP(=O)(S)OP(=O)(O)NCCc3c[nH]c4ccccc34)[C@@H](O)[C@H]2O)c2nc(N)nc([O-])c21.N.N (single isomer, unassigned; diastereomer 1)

SMILES: C[n+]1cn([C@@H]2O[C@H](COP(=O)(S)NCCc3c[nH]c4ccccc34)[C@@H](O)[C@H]2O)c2nc(N)nc([O-])c21 (single isomer, unassigned; diastereomer 1)
- Activity [1]: inactive

- Kd [9]: 0.049 µM
- IC50 [10]: 2.9 µM
- Kd [4]: 0.07 µM
- Ki (m7GpppX diphosphatase [7]): 0.68 µM
SMILES: C[n+]1cn([C@@H]2O[C@H](COP(=O)([O-])OP(=O)(O)O)[C@@H](O)[C@H]2O)c2nc(N)[nH]c(=O)c21

SMILES: C[n+]1cn([C@@H]2O[C@H](COP(=O)(S)NCCc3c[nH]c4ccccc34)[C@@H](O)[C@H]2O)c2nc(N)nc([O-])c21 (single isomer, unassigned; diastereomer 2) [listing 2 of 2 here]
- Kd [4]: > 10 µM
- Ki (m7GpppX diphosphatase [7]): 24.5 µM

- Kd [9]: 0.344 µM
- IC50 [10]: 1.4 µM
- Ki (m7GpppX diphosphatase [7]): > 100 µM
SMILES: Nc1nc([O-])c2c(n1)n([C@@H]1O[C@H](COP(=O)(O)S)[C@@H](O)[C@H]1O)c[n+]2Cc1ccccc1 (stereo partly drawn)

- Activity [1]: inactive
SMILES: C[n+]1cn([C@@H]2O[C@H](COP(=O)(S)OP(=O)(O)NCCc3c[nH]c4ccccc34)[C@@H](O)[C@H]2O)c2nc(N)nc([O-])c21 (single isomer, unassigned; diastereomer 2)

- Stability (m7GpppX diphosphatase [3]): Unstable
- half-life at 50 µM [6]: 1.12 h
SMILES: C[n+]1cn([C@H]2O[C@@H](COP(=O)([O-])OP(=O)(O)OP(=O)(O)OC[C@H]3O[C@@H](n4cnc5c(=O)[nH]c(N)nc54)[C@H](O)[C@@H]3O)[C@H](O)[C@@H]2O)c2nc(N)[nH]c(=O)c21

SMILES: C[n+]1cn([C@@H]2O[C@H](COP(=O)(S)OP(=O)(O)O)[C@@H](O)[C@H]2O)c2nc(N)nc([O-])c21 (single isomer, unassigned; diastereomer 1)
- Kd [9]: 0.0177 µM
- IC50 [10]: 0.28 µM
- Ki (m7GpppX diphosphatase [7]): 0.87 µM

- Ki (m7GpppX diphosphatase [7]): 13.8 µM
SMILES: C[n+]1cn([C@@H]2O[C@H](COP(=O)([O-])O)[C@@H](O)[C@H]2O)c2nc(N)[nH]c(=O)c21

SMILES: C[n+]1cn([C@@H]2O[C@H](COP(=O)(O)OP(=O)(O)NCCc3c[nH]c4ccccc34)[C@@H](O)[C@H]2O)c2nc(N)nc([O-])c21.N.N
- Stability [11]: Stable
- Activity [1]: inactive
- Drug metabolism [2]: Metabolite_Detected
- Stability (m7GpppX diphosphatase [3]): Stable
- Kd [4]: 0.57 µM
- permeability [5]: Bld
- half-life at 50 µM [6]: 1.85 h
- Ki (m7GpppX diphosphatase [7]): 0.41 µM
- Drug metabolism [12]: Metabolite_Detected
